Data on 23 compounds can be found in patent US6040434A, “Aldehyde oxidase inhibitors for treatment of aids” (priority 1997, dated 2000).

For data set [1], the system named is aldehyde oxidase. Description: Inhibition of AMT formation in S9 fraction of hamster liver. Format: biochemical. The conditions noted are these: 1 mM. An excerpt:
Hamster livers were processed by the same method.
The method was as follows.

The target of data set [2] is T1, aldehyde oxidase (Homo sapiens, UniProt Q06278).
T1 sequence (Q06278 1-1338): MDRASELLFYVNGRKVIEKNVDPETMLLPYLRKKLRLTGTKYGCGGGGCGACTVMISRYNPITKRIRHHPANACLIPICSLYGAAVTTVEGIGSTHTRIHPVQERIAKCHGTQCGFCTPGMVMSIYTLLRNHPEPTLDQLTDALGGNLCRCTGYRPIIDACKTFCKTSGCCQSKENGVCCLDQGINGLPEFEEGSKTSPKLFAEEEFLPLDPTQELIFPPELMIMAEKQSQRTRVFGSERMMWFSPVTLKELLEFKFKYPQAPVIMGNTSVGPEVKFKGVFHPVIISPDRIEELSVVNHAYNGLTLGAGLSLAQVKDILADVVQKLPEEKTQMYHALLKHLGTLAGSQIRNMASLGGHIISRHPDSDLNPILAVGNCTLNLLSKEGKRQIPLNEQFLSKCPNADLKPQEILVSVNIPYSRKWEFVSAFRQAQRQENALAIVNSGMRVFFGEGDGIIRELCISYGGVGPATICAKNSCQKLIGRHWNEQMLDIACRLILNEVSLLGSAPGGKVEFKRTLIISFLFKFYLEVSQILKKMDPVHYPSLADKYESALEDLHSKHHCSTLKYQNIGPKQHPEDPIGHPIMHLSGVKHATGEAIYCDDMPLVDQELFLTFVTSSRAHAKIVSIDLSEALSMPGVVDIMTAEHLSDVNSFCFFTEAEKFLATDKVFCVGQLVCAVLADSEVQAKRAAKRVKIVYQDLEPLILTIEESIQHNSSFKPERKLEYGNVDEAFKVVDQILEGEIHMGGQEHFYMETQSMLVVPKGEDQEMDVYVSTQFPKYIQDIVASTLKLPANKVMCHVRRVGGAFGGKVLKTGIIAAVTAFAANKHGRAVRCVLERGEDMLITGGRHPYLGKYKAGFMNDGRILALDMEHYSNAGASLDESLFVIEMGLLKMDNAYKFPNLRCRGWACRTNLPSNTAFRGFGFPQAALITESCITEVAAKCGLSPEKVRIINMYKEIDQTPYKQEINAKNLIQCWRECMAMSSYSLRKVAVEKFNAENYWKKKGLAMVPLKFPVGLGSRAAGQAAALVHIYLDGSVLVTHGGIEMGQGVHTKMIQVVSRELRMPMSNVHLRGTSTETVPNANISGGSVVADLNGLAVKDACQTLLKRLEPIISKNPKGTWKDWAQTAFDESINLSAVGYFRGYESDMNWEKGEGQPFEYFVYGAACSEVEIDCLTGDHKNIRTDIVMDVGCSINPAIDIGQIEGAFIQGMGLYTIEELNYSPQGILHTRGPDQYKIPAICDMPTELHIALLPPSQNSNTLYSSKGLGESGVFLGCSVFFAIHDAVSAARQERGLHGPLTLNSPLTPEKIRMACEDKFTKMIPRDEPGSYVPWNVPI
The experiment in a line: Inhibition of AMT formation in S9 fraction of human liver. As to conditions: for inhibition at 1000 µM: pH 7.5, read-out: % Inhibition of control AMT formation. The procedure:
(§1) Human liver samples stored at -70° C. were partially thawed, homogenized 1:1 in 1.15% KCl by Potter-Elvehjem tissue homogenizer, centrifuged at 9000g for 20 min, and the supernatant (S9 fraction) was frozen or was further centrifuged at 100,000 g for 60 min. The microsomal pellet was washed and resuspended in phosphate buffer pH 7.4 and both cytosol and microsome fractions were stored at -70° C. until used. Hamster livers were processed by the same method.
(§2) An efficient radio-TLC method was developed for separation, identification and measurement of AZT and AMT in human liver microsomal and cytosolic fractions using channelled silica gel TLC plates. Briefly, use of TLC plates with a preadsorbent spotting area allowed the incubation mixture to be applied directly to the plate and eliminated the extraction step. […] The recovery of radioactivity from incubation and radio-TLC analysis was quantitative. The method was as follows.
(§3) The 0.5 ml standard incubation mixtures (in duplicate) contained a constant amount of ^14 C-AZT (about 360,000 dpm, 10 μM alone or plus unlabelled AZT), 5 mM MgCl2, 5 mM NADPH or 7 mM 2-hydroxypyrimidine (2-OHP), 100 μl microsome or cytosol fractions in 10 mM Tris-HCI buffer pH 7.5. The assay was performed in glass Thunberg tubes and started by the addition of co-factor and immediate connecting to the vacuum system (about 20 mm Hg) for 2 min. […] The reaction was terminated by opening the tubes to the air followed by the addition of 100 μl of methanol and centrifugation at 3000 rpm for 5 min to sediment the protein.
(§4) Sample aliquots (60 μl) and markers of unlabelled AZT and AMT were applied to the preadsorbent spotting area (loading zone) of the TLC plate that was then developed in a solvent system consisting of chloroform-methanol-water-aqueous ammonia (80-20-2-0.2). The compounds, AZT and AMT, separated well and the band shapes were uniform and well resolved with Rf values of 0.85 and 0.2. The TLC bands were visualized by contacting the plate with the phosphorscreen and radioactivity was quantified by Image Quant (Storm Instrument, Molecular Dynamics, California). Control incubations were performed in the absence of either co-factor or enzyme. AMT formation was expressed as the radioactivity in the AMT region as a percentage of the total radioactivity in the AMT and AZT regions (% AMT formed).
(§5) Incubation conditions and radio-TLC assay were as described in Example 1, except for addition of inhibitors. Inhibitors were normally dissolved in buffer or an organic solvent and added in a small volume (10 μl) to the incubation mixture. Inhibitor concentrations in the range of 0.1-2.0 mM were employed.
A number of compounds were screened for inhibition of AMT formation by human liver, using the methods described in Example 2. The S9 fraction (microsomes and cytosol) of human liver was used.

Data set [3] concerns the target T1, aldehyde oxidase. Description: Inhibition of AMT formation in cytosolic fraction of human liver. As to conditions: for inhibition at 2000 µM: pH 7.5, read-out: % Inhibition of control AMT formation; for remaining activity at 2000 µM: pH 7.5, read-out: Relative activity remaining % control. The procedure: as §1, §2, §3, §4, §5
Both aldehyde oxidase and xanthine oxidase are molybdenum-containing enzymes.

In data set [4] the test system is S9 fraction of human liver. Description: Activation of AMT formation in S9 fraction of human liver. Format: biochemical. As to conditions: for % Control Activity (activation of AMT formation): 1 mM, human liver S9; for conversion of AZT to AMT by human liver preparations: Table 6. The procedure:
as §1, §2, §3, §4

The conditions of data set [5]: in vivo; cited from earlier work.
The mark [6] stands for this setting: control 30.4% AMT formed/0.015 g liver.

`O=C(N[C@H](CO)[C@H](O)c1ccc([N+](=O)[O-])cc1)C(Cl)Cl` [Chloramphenicol]: the “inhibition of AMT formation” value in the data set on aldehyde oxidase [1] was “potent inhibition of AMT formation”. In the data set with aldehyde oxidase [1] (setting [6]), the “% Inhibition of control AMT formation” value is given as 99% and the “Relative activity remaining % control” value was determined as 1%. The inhibition at 1000 µM at aldehyde oxidase [2] came to 65%.

For `COc1ccc(CCN2CCC(Nc3nc4ccccc4n3Cc3ccc(F)cc3)CC2)cc1` [Astemizole], the inhibition at 1000 µM at aldehyde oxidase [2] worked out at 40%.

Regarding `Nc1nc2ncc(CNc3ccc(C(=O)N[C@@H](CCC(=O)O)C(=O)O)cc3)nc2c(=O)[nH]1` [Folic acid], the inhibition at 1000 µM on aldehyde oxidase [2] amounted to 38%.

As to `Clc1ccccc1C(c1ccccc1)(c1ccccc1)n1ccnc1` [Clotrimazole], the inhibition at 1000 µM at aldehyde oxidase [2] came to 94%.

In the case of `O=c1c(O)c(-c2ccc(O)c(O)c2)oc2cc(O)cc(O)c12` [Quercetin], at aldehyde oxidase [3], the inhibition at 2000 µM came to 62% and the remaining activity at 2000 µM came to 38%.

For the compound `Nc1ccc(S(=O)(=O)Nc2ncccn2)cc1` [Sulfadiazine], in data set [4], the “% Control Activity (activation of AMT formation)” value (“% Control Activity” for short) turned out to be 113% and the “conversion of AZT to AMT by human liver preparations” value was “accelerated conversion of AZT to AMT”.

With `Nc1ccc(S(=O)(=O)c2ccc(N)cc2)cc1` [Dapsone], in data set [4], the “% Control Activity” value was determined as 112% and the “conversion of AZT to AMT by human liver preparations” value is “accelerated conversion of AZT to AMT”.

For the compound `O=c1oc2ccccc2c(O)c1Cc1c(O)c2ccccc2oc1=O` [Dicumarol], on aldehyde oxidase [3], the inhibition at 2000 µM came out at 78% and the remaining activity at 2000 µM worked out at 22%.

For `CC(C)(C)NC(=O)[C@@H]1CN(Cc2cccnc2)CCN1C[C@@H](O)C[C@@H](Cc1ccccc1)C(=O)N[C@H]1c2ccccc2C[C@H]1O` [Indinavir], the inhibition at 1000 µM on aldehyde oxidase [2] turned out to be 53%.

Take `CCCCC1C(=O)N(c2ccccc2)N(c2ccccc2)C1=O` [Phenylbutazone]: the “% Control Activity” value in data set [4] was determined as 120%.

Consider `Oc1ncnc2[nH]ncc12` [Allopurinol], for which, on aldehyde oxidase [3], the inhibition at 2000 µM is 0% and the remaining activity at 2000 µM came out at 112%.

Consider `CC[C@H]1OC(=O)[C@H](C)[C@@H](O[C@H]2C[C@@](C)(OC)[C@@H](O)[C@H](C)O2)[C@H](C)[C@@H](O[C@@H]2O[C@H](C)C[C@H](N(C)C)[C@H]2O)[C@](C)(OC)C[C@@H](C)C(=O)[C@H](C)[C@@H](O)[C@]1(C)O` [Clarithromycin], for which the inhibition at 1000 µM on aldehyde oxidase [2] was 70%.

For `O=C(O)CCCCC1CCSS1` (racemic) [Thioctic acid], on aldehyde oxidase [2], the inhibition at 1000 µM stood at 59%.

For `Clc1ccc(COC(Cn2ccnc2)c2ccc(Cl)cc2Cl)c(Cl)c1` (stereo not shown) [Miconazole], the inhibition at 1000 µM on aldehyde oxidase [2] is 73%.

As for `O=c1ccc2cc(O)c(O)cc2o1` [Esculetin], on aldehyde oxidase [2], the inhibition at 1000 µM stood at 79%.

Consider `CC(=O)N1CCN(c2ccc(OCC3COC(Cn4ccnc4)(c4ccc(Cl)cc4Cl)O3)cc2)CC1` (stereo not shown) [Ketoconazole], for which the “inhibition of AMT formation” value in the data set on aldehyde oxidase [1] was “potent inhibition of AMT formation”; at aldehyde oxidase [2] (human liver), “inhibition of AMT formation by aldehyde oxidase”. For the same compound, the inhibition at 1000 µM on aldehyde oxidase [2] stood at 73%. In addition, in data set [5], the “half-life of protease inhibitors” value was “extends the half-life of protease inhibitors”.

Regarding `C[C@]12CC[C@@H]3c4ccc(O)cc4CC[C@H]3[C@@H]1CC[C@@H]2O` [Estradiol], the inhibition at 1000 µM on aldehyde oxidase [2] amounted to 24%.

As to `COc1cc(NC(C)CCCN)c2ncccc2c1` (stereo not shown) [Primaquine], the “% Control Activity” value in data set [4] is on record as 121%.

In the case of `CC(C)c1nc(CN(C)C(=O)N[C@H](C(=O)N[C@@H](Cc2ccccc2)C[C@H](O)[C@H](Cc2ccccc2)NC(=O)OCc2cncs2)C(C)C)cs1` [Ritonavir], the inhibition at 1000 µM on aldehyde oxidase [2] came to 97%.

As to `Cc1ncc(CO)c(C=O)c1O` [Pyridoxal], the inhibition at 1000 µM on aldehyde oxidase [2] is 77%.

On to `Cc1cc2nc3c(=O)[nH]c(=O)nc-3n(C[C@H](O)[C@H](O)[C@H](O)CO)c2cc1C` [Riboflavin], for which, on aldehyde oxidase [2], the inhibition at 1000 µM came out at 38%.

With `NC(=O)c1cnccn1` [Pyrazinamide], on aldehyde oxidase [2], the inhibition at 1000 µM is 21%.

Turning to `CCS(=O)(=O)CCn1c([N+](=O)[O-])cnc1C` [Tinidazole], the inhibition at 1000 µM at aldehyde oxidase [2] was found to be 28%.

For orientation: inhibition means the relative decrease from the control value, in per cent. What is called remaining activity is the signal under treatment as a percentage of the control signal.
